molecular target: T1, Fatty acid synthase [2202-2509] (Homo sapiens, UniProt P49327); assay: Fluorogenic Assay for Detection of FASTE Inhibition; conditions: pH 7.5; 37 °C
T1 construct: 2202-2509
T1 sequence (P49327 2202-2509): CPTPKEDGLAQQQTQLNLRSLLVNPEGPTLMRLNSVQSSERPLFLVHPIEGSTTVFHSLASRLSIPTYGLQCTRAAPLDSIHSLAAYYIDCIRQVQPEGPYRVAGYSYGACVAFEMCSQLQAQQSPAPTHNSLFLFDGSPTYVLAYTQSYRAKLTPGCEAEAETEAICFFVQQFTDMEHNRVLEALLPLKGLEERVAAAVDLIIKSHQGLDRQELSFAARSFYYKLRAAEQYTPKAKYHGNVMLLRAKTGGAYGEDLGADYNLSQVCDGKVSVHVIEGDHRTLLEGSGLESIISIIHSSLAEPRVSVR
Procedure: The reaction mixture consisted of FAS thioesterase domain (FASTE) in buffer, which was preincubated with test compounds for 30 min. The reaction was initiated by addition of substrate 4-MUH. […] The inhibition constants (Ki) were calculated using the equation of Cheng and Prusoff.

Structure (SMILES)	Ki
Cc1cc(C)cc(N2C(=O)NC(=O)C(=Cc3ccc(-c4ccccc4)o3)C2=O)c1 [(5E)-1-(3,5-dimethylphenyl)-5-[(5-phenylfuran-2-yl)methylidene]-1,3-diazinane-2,4,6-trione]	380 nM
Cc1ccccc1N1C(=O)NC(=O)C(=Cc2ccc(-c3ccc(F)cc3)o2)C1=O [(5E)-5-{[5-(4-fluorophenyl)furan-2-yl]methylidene}-1-(2-methylphenyl)-1,3-diazinane-2,4,6-trione]	910 nM
O=C1NC(=O)N(c2cccc(Br)c2)C(=O)C1=Cc1ccc(-c2ccccc2[N+](=O)[O-])o1 [(5E)-1-(3-bromophenyl)-5-{[5-(2-nitrophenyl)furan-2-yl]methylidene}-1,3-diazinane-2,4,6-trione]	880 nM
O=C1NC(=O)N(Cc2ccccc2)C(=O)/C1=C/c1ccc(-c2ccccc2Cl)o1 [(5E)-1-benzyl-5-{[5-(2-chlorophenyl)furan-2-yl]methylidene}-1,3-diazinane-2,4,6-trione]	850 nM
